{"source": "patent US20250213519A1", "about": "“SYNERGY FOR INCREASING INSULIN SENSITIVITY” (Board of Supervisors of Louisiana State University and …, priority 2022, published 2025)", "key": {"[1]": {"conditions": "cited from earlier work"}, "[2]": {"test_system": "primary islets", "conditions": "up to 100 μm, 24 h; cited from earlier work"}, "[3]": {"conditions": "cited from earlier work; for solubility in an acidic solution: acetic acid buffered"}, "[4]": {"test_system": "human adipocytes", "experiment": "Protein levels by Western blotting in human adipocytes treated for seven days", "assay_type": "cell-based", "conditions": "for SIRT3 protein levels, NR combined with myricetin: 8 μM NR + 50 nM myricetin vs NR or myr alone", "excerpt": "Since we saw an increase in SIRT3 mRNA and myricetin upregulates SIRT3 protein in adipocytes from mice, we analyzed levels of SIRT3 protein in human adipocytes treated for seven days with the same concentrations of compounds. Protein was isolated from adipocytes and analyzed on immunoblots probed with antibodies that specifically bind human SIRT3 or human β-actin. […] However, adding myr to NR+BC boosted SIRT3 protein by 37%.\nHuman adipose-derived stem cells from overweight and obese female donors were purchased from LaCell, LLC (New Orleans, Louisiana) or isolated from lipoaspirate waste donated post-surgery from women with obesity using methods as previously described (31). Cells were seeded, maintained until two days after becoming confluent, and differentiated into adipocytes in the presence of rosiglitazone and isobutylmethylxanthine for five days as previously described (25). Treatments of adipocytes with 8 μM NR and 2 μM carotenoid, dissolved in DMSO at 1000×, started 5 days after the differentiation period and lasted for seven days in adipocyte maintenance medium with heat inactivated serum, before RNA and protein were isolated from adipocyte cultures.\nWhole cell protein was isolated from differentiated cell cultures after treatment for seven days, lysed with RIPA buffer containing protease and phosphatase inhibitors, and pushed through a 20-gauge needle four times to disrupt organelles. Fifty micrograms of total cell protein were loaded per lane and resolved in 7.5% SDS-PAGE gels, transferred to nitrocellulose membranes, and probed overnight at 4° C. with specific primary antibodies. Anti-rabbit or -mouse secondary antibodies conjugated to horseradish peroxidase were used for detection of target proteins. Image J was used to quantify protein bands on Western blots. To adjust for variations in total protein loaded in each lane, β-actin was used."}, "[5]": {"conditions": "single dose injection; cited from earlier work"}, "[6]": {"conditions": "mice; cited from earlier work"}, "[7]": {"experiment": "Estimated human Cmax of myricetin by conversion from rats", "conditions": "for Cmax: human, oral"}, "[8]": {"test_system": "human adipocytes", "experiment": "mRNA levels (qRT-PCR) in human adipocyte cultures treated for seven days", "assay_type": "cell-based", "conditions": "50 nM myricetin alone, 7 days"}, "[9]": {"test_system": "cytochrome P450 and drug efflux pumps like P-glycoprotein", "conditions": "enhances availability of co-administered tamoxifen and losartan in rats; cited from earlier work"}, "[10]": {"experiment": "Myricetin toxicity in mice", "assay_type": "in vivo", "conditions": "converted for human"}, "[11]": {"conditions": "25° C.; cited from earlier work"}, "[12]": {"test_system": "PPARg P-serine 273", "experiment": "Immunoblot of PPARg phosphorylation at serine 273", "assay_type": "cell-based, human", "conditions": "50 nM myricetin + 8 μM NR + 2 μM BC, 7 days", "procedure": "Phosphorylation of PPARg by CDK5 at serine-273 is an important mechanism for inhibition of target genes for insulin sensitivity^7. Inhibitors of CDK5 have potential as diabetes drugs^8. Several studies have provided that myricetin is a CDK5 inhibitor and has insulin sensitizing characteristics that make it a potential therapeutic for diabetes^9,10. We previously analyzed NRBC for effects on PPARg phosphorylation at serine 273. Human adipocytes were treated with 8 μM NR and 2 μM BC for three, five and seven days, and protein was isolated and analyzed on immunoblots probed with an antibody specific for human P-serine 273 PPARg. The same blot was stripped and re-probed with an antibody for total human PPARg. Values in the histogram represent (P-ser 273 PPARg)/(total PPARg). […] The effect increases over time.\nThe experiment for analysis of phosphorylation of PPARg at P-273 was repeated to determine whether adding myricetin to NRBC can further inhibit PPARg P-273 phosphorylation. Cells were treated for seven days with 8 μM NR, 2 μM BC and 50 nM myricetin. Protein was analyzed on immunoblots probed with the same antibodies."}, "[13]": {"test_system": "human adipocytes", "experiment": "Protein levels by Western blotting in human adipocytes treated for seven days", "assay_type": "cell-based", "conditions": "for PGC-1α protein, myricetin added to NRBC: 50 nM myricetin + NRBC, compared to NRBC"}, "[14]": {"conditions": "0.12% myricetin in high fat and sucrose diet; cited from earlier work"}, "[15]": {"biological_target": "GLP-1R (Homo sapiens, UniProt P43220)", "sequence (P43220 24-463, species assumed)": "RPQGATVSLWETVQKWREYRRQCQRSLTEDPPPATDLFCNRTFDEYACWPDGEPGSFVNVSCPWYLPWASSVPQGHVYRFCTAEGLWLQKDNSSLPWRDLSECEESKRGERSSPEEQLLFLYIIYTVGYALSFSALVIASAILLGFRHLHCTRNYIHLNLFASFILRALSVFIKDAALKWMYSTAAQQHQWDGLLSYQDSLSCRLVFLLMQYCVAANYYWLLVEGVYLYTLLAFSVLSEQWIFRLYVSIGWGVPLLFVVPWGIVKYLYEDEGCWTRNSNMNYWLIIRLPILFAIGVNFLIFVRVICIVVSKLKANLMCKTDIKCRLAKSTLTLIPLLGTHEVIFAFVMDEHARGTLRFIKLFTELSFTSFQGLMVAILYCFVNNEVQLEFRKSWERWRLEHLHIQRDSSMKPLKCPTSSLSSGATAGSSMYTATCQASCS", "conditions": "cited from earlier work"}, "[16]": {"test_system": "rat islets", "conditions": "rat islets incubated in high glucose; cited from earlier work"}, "[17]": {"biological_target": "CDK5 (Homo sapiens, UniProt Q00535)", "sequence (Q00535 whole entry, species assumed)": "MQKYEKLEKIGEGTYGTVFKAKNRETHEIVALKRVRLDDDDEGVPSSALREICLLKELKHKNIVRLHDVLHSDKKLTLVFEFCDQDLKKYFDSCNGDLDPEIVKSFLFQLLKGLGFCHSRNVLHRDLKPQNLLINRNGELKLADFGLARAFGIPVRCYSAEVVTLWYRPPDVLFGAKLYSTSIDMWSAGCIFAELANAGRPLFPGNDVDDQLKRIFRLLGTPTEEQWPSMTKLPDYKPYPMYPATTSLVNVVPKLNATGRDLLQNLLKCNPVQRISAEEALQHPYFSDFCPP", "sequence (Q15078 whole entry partner, species assumed)": "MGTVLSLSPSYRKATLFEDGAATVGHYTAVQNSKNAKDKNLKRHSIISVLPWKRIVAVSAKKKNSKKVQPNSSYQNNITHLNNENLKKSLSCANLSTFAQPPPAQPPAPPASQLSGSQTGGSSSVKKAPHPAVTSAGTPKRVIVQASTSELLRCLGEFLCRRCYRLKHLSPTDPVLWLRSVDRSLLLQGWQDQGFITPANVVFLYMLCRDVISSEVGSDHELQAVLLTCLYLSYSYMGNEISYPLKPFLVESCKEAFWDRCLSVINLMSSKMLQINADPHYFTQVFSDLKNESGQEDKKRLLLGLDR", "conditions": "cited from earlier work"}, "[18]": {"conditions": "oral administration, high fat diet; cited from earlier work"}, "[19]": {"conditions": "rats orally administered 50 mg/kg and 100 mg/kg"}}, "note": "Read-outs that look alike come from different tables or passages of the source."}
{"compound": "O=c1c(O)c(-c2cc(O)c(O)c(O)c2)oc2cc(O)cc(O)c12", "note": "[myricetin]", "values": [{"measurement": "AUC0-∞", "setting": "[1]; rat, i.v., 0.5 mg/kg", "value": "1452.85 ± 170.30", "unit": "ng·h/mL"}, {"measurement": "CL", "setting": "[1]; rat, i.v., 0.5 mg/kg", "value": "5.83 ± 0.83", "unit": "mL/min/kg"}, {"measurement": "Cmax", "setting": "[1]; rat, i.v., 0.5 mg/kg", "value": "2232.16 ± 856.36", "unit": "ng/mL"}, {"measurement": "Tmax", "setting": "[1]; rat, i.v., 0.5 mg/kg", "value": "0 (pre-dose) h"}, {"measurement": "Vd", "setting": "[1]; rat, i.v., 0.5 mg/kg", "value": "4.12 ± 1.52", "unit": "L/kg"}, {"measurement": "t1/2", "setting": "[1]; rat, i.v., 0.5 mg/kg", "value": "6.99 ± 1.94", "unit": "h"}, {"measurement": "AUC0-∞", "setting": "[1]; rat, p.o., 50 mg/kg", "value": "13,731.13 ± 5,574.58 ng · h/mL"}, {"measurement": "Bioavailability", "setting": "[1]; rat, p.o., 50 mg/kg", "value": 9.62, "unit": "%"}, {"measurement": "Cmax", "setting": "[1]; rat, p.o., 50 mg/kg", "value": "1488.75 ± 200.78", "unit": "ng/mL"}, {"measurement": "Tmax", "setting": "[1]; rat, p.o., 50 mg/kg", "value": "6.4 ± 0.89", "unit": "h"}, {"measurement": "t1/2", "setting": "[1]; rat, p.o., 50 mg/kg", "value": "2.78 ± 0.81", "unit": "h"}, {"measurement": "AUC0-∞", "setting": "[1]; rat, p.o., 100 mg/kg", "value": "28,081.62 ± 10,982.45 ng · h/mL"}, {"measurement": "Bioavailability", "setting": "[1]; rat, p.o., 100 mg/kg", "value": 9.74, "unit": "%"}, {"measurement": "Cmax", "setting": "[1]; rat, p.o., 100 mg/kg", "value": "2611.76 ± 1019.58", "unit": "ng/mL"}, {"measurement": "Tmax", "setting": "[1]; rat, p.o., 100 mg/kg", "value": "5.2 ± 3.03", "unit": "h"}, {"measurement": "t1/2", "setting": "[1]; rat, p.o., 100 mg/kg", "value": "3.79 ± 0.75", "unit": "h"}, {"measurement": "oral bioavailability", "setting": "[1]; [19]", "value": "approximately 10%"}, {"measurement": "time to maximal concentration (Tmax)", "setting": "[1]; [19]", "value": 6.5, "unit": "h"}, {"measurement": "viability of primary islets", "setting": "[2]", "value": "no loss of viability"}, {"measurement": "solubility in an acidic solution", "setting": "[3]; pH 1", "value": 777, "unit": "µg/mL"}, {"measurement": "solubility in an acidic solution", "setting": "[3]; pH 2", "value": 576, "unit": "µg/mL"}, {"measurement": "solubility in an acidic solution", "setting": "[3]; pH 3", "value": 150, "unit": "µg/mL"}, {"measurement": "aqueous solubility", "setting": "[3]; aqueous", "value": 17, "unit": "µg/mL"}, {"measurement": "SIRT3 protein levels, NR combined with myricetin", "setting": "[4]", "value": "does not increase SIRT3 protein levels"}, {"measurement": "SIRT3 protein levels, NR combined with myricetin", "setting": "[4]; listed as Myricetin", "value": "did not increase SIRT3 protein levels"}, {"measurement": "SIRT3 protein levels, single agent", "setting": "[4]; 8 μM NR or 50 nM myricetin, 7 days", "value": "upregulate SIRT3 protein levels"}, {"measurement": "increase in SIRT3 protein", "setting": "[4]; myr added to NR+BC", "value": 37, "unit": "%"}, {"measurement": "increase in SIRT3 mRNA and protein", "setting": "[4]; myr added to NRBC (summary)", "value": "two-fold"}, {"measurement": "blood glucose levels", "setting": "[5]", "value": "maintained reduced blood glucose levels for eight hours"}, {"measurement": "Tox", "setting": "[6]", "value": 1000, "unit": "mg/kg/day"}, {"measurement": "Human Cmax", "setting": "[7]; 564 mg dose, conversion from 50 mg/kg in rats", "value": 39400, "unit": "nM"}, {"measurement": "Cmax", "setting": "[7]; 10 mg", "value": "~400", "unit": "nM"}, {"measurement": "Cmax", "setting": "[7]; 564 mg", "value": "~2500", "unit": "nM"}, {"measurement": "SIRT1 or SIRT3 mRNA levels", "setting": "[8]", "value": "no effect"}, {"measurement": "inhibition of cytochrome P450 and efflux pumps", "setting": "[9]", "value": "inhibits cytochrome P450 and drug efflux pumps like P-glycoprotein"}, {"measurement": "Tox, human equivalent", "setting": "[10]", "value": 11, "unit": "g"}, {"measurement": "stability half-life", "setting": "[11]", "value": 23, "unit": "h"}, {"measurement": "PPARg P-273 phosphorylation, myricetin added to NRBC", "setting": "[12]", "value": "did not further decrease PPARg P-273 relative to NRBC"}, {"measurement": "PPARg P-273 phosphorylation, myricetin added to NRBC", "setting": "[12]; listed as Myricetin", "value": "did not alter phosphorylation of PPARg at serine-273"}, {"measurement": "PGC-1α protein, myricetin added to NR", "setting": "[13]; 50 nM myricetin + 8 μM NR", "value": "small increase"}, {"measurement": "PGC-1α protein, myricetin added to NRBC", "setting": "[13]", "value": "two-fold higher"}, {"measurement": "PGC-1α protein, myricetin added to NRBC", "setting": "[13]; listed as Myricetin", "value": "over two-fold"}, {"measurement": "PGC-1α protein levels", "setting": "[13]; 50 nM myricetin, 7 days", "value": "robustly upregulated"}, {"measurement": "adiposity, circulating glucose and insulin", "setting": "[14]", "value": "reductions in adiposity, and circulating glucose and insulin"}, {"measurement": "GLP-1R agonist activity", "setting": "[15]", "value": "activity as a GLP-1R agonist at low micromolar concentrations"}, {"measurement": "insulin release", "setting": "[16]", "value": "stimulated insulin release"}, {"measurement": "CDK5 kinase activity inhibition EC50 (in words)", "setting": "[17]", "value": "low micromolar range"}, {"measurement": "EC50", "setting": "[17]; read-out: CDK5 inhibition EC50", "value": 71, "unit": "µM"}, {"measurement": "fatty liver disease and circulating triglycerides", "setting": "[18]", "value": "improved fatty liver disease and lowered circulating triglycerides"}]}
